Columns and labels:
[1] = test system: P388 mouse leukemia cells; test: Life-span-prolonging (anti-tumor) effect on mice subcutaneously inoculated with P388 mouse leukemia cells; assay type: in vivo, mouse (CDF1 female); details: for Survival days ave. ± s. d. / response vs control in vivo at 0.1 mg/kg / T/C (%): 0.1 mg/kg i.v. on days 1, 5 and 9; for Survival days ave. ± s. d.: all marked ** (p < 0.01); for response vs control in vivo at 0.1 mg/kg: Mus musculus, P388, iv, read-out: T/C (%); for response vs control in vivo at 0.1 mg/kg / T/C (%): survival vs vehicle
Outline: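 CDF1 female mice (6 weeks), 5 per group, inoculated subcutaneously with P388 leukemia cells; life-span prolongation assessed. Lentinan and picibanil given intravenously on days 1, 3, 5, 7 and 9 after implantation; sizofilan given subcutaneously on days 1 through 9. Statistics by Mann-Whitney test.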

mouse bone marrow cells = test: In vitro mouse bone marrow cell-proliferation-promoting effect (3H-TdR uptake); assay type: cell-based, mouse (BDF1 female); details: 4 days; for activity at 0.1 µg/mL / activity at 0.01 µg/mL: Mus musculus, Bone marrow cell, 96 h, read-out: Uptake of 3H-TdR (% of control), bone marrow cells; for Uptake of 3H-TdR (% of control), bone marrow cells: 5760 min
Outline: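 Femoral bone marrow monocytes from 6-week female BDF1 mice (Lympholite M fraction, 1×10^6 cells/ml in 10% FCS RPMI 1640) cultured with sample for 4 days at 37 °C, 5% CO2. 3H-TdR (0.5 μCi/well) added for final 6 h; uptake ratio versus vehicle reported as activation rate.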

mouse splenic lymphocyte = test: In vitro mouse splenic lymphocyte-proliferation-stimulating effect (3H-TdR uptake); assay type: cell-based, mouse (BDF1 female); details: 2 days; for Uptake of 3H-TdR (% of control), splenic lymphocytes: 2880 min
Outline: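 Spleen cells from 6-week-old female BDF1 mice, 2×10^6 cells/ml in 10% FCS RPMI 1640, cultured with vehicle or sample 2 days at 37° C, 5% CO2. ^3H-TdR (0.5 μCi/well) uptake over 6 h by scintillation counting, expressed as % of vehicle.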

[2] = test system: mixed lymphocyte culture reaction (spleen cells of C57BL/6 and BALB/C mice); test: Mixed lymphocyte culture reaction (MLR); assay type: cell-based, mouse (C57BL/6 stimulator, BALB/C responder); details: 42 hours; for MLR activating rate (%): 2520 min
Outline: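 Mouse one-way MLR: mitomycin C-treated (50 μg/ml, 30 min) C57BL/6 spleen cells stimulated BALB/C responder spleen cells, 2×10^6 cells/ml each, cultured 42 h at 37 °C with sample. ³H-thymidine (0.5 μCi/well) incorporation over a further 8 h gave MLR activating rate as % of vehicle uptake.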

[3] = Solubility in water in aqueous Polysorbate 20 solutions; assay type: physicochemical
Description: Compounds a and b comprising a monosaccharide as a constituent sugar which are disclosed in WO 93/05055 were synthesized as above. A 1 mg of each of the present compounds 4, 31 and 33 and Compound a and b was dissolved in 1 ml of an aqueous Polysorbate 20 solution in a variety of concentrations in order to observe visually the property.

[4] = test system: mouse splenic lymphocytes; test: Influence of Polysorbate on immunostimulating effect (3H-TdR uptake into mouse splenic lymphocytes); assay type: cell-based, mouse (BDF1 female); details: for 3H-TdR uptake: 10% PS20 stock (compound 1 mg/ml), mean of 3 wells
Description: Experiment was performed with BDF1 female mice (6 weeks old) purchased from NIPPON SLC K.K. Spleens were removed from mice, and spleen cells were brayed with slide glasses and hemolized with NH4 Cl. 2×10^6cells/ml of the spleen cells which had been hemolized were suspended in 10% FCS RPMI 1640. The cell suspension (100 μl/well) and a vehicle or sample (10 μl/well) which was prepared so as to have a final level shown in Table 3 were added into wells of a round-bottomed 96 well plate, and cultured under the condition of 5% CO2 at 37° C. for 2 days. 0.5 μCi/well of ^3 H-thymidine (^3 H-TdR) was added. After 6 hours, the cells were harvested, and the amount of ^3 H-TdR uptaken into nucleus was measured by a liquid scintillation counter. The ratio (%) of the uptake of ^3 H-TdR in the sample group to that in the vehicle group was calculated and used as the in vitro mouse splenic lymphocyte-proliferation-stimulating rate.
A sample of a solution of 1 mg of Compound 33 prepared in Experimental Example 8 in 1 ml of 10% or 0.1% Polysorbate 20, a sample of a solution of 1 mg of Compound b in 1 ml of 10% Polysorbate 20, or 10% and 0.1% Polysorbate 20, were prepared by subjecting to aseptic filtration followed by sequential 10 time dilution with PBS as shown in Table 5 in order to carry out the experiment described in Experimental Example 6.
In this connection, 1 mg of Compound b was insoluble in 0.1% Polysorbate, and thus no experiment was conducted.

B16 mouse melanoma cells = test: Tumor growth inhibition in mice subcutaneously inoculated with B16 mouse melanoma cells; assay type: in vivo, mouse (BDF1 female); details: 0.1 mg/kg i.v. days 1, 5, 9; maximum during 20 days
Description: ii) Anti-tumor effect of the compound according to the present invention on mice subcutaneously inoculated with B16 mouse melanoma cells.
Experiment was performed with BDF1 female mice (6 weeks) purchased from NIPPON SLC K.K., which were divided into groups consisting of 6 animals. […]. The subcutaneous tumor volumes [(length×width×height)/2] were measured on days 8, 12, 16 and 20 after implantation to determine the tumor growth inhibiting rate (TGIR) of each sample. TGIR was calculated from the following formula: […]
wherein C: tumor volume in the control group, and
T: tumor volume in the sample adminitered groups.
In this connection, Compounds 1-6 and 7-9 were tested in the same time, respectively.

lethally irradiated mice = test: Radioprotective effect: life-span prolongation of lethally irradiated mice; assay type: in vivo, mouse (BDF1 female); details: 0.1 mg/kg i.v. days 0, 4, 8, 9 Gy X-ray, groups of 10
Description: Life-span-prolonging effects of the present compounds on lethally irradiated mice.
Experiment was performed with BDF1 female mice (6 weeks old) purchased from NIPPON SLC K.K., which were divided into groups consisting of 10 animals. Mice were irradiated generally with 9 Gy of X-ray with an X-ray generating apparatus, Hitachi, MBR-1520R (radiation day: day 0). Samples at a dose of 0.1 mg/kg were administered into tail vein on days 0, 4 and 8 in order to observe the mortality of the animals for 40 days.
In the table, two experiments are separated by the broken line.

Structure (SMILES): CCCCCCCCCCCCCCCCCCCCCCCCCC(=O)N[C@@H](CO[C@H]1O[C@H](CO[C@H]2O[C@H](CO)[C@H](O)[C@H](O)[C@H]2O)[C@@H](O)[C@H](O)[C@H]1O)[C@H](O)[C@H](O)CCCCCCCCCCCCCC [Compound 31, O-α-D-galactopyranosyl-(1→6)-O-α-D-glucopyranosyl-(1→1)-(2S,3S,4R)-2-amino-N-hexacosanoyl-1,3,4-octadecanetriol]
- Survival days ave. ± s. d. [1]: 14.6 ± 0.5 days
- response vs control in vivo at 0.1 mg/kg [1]: 114%
- life-span-prolonging effect (anti-tumor effect), in words ([1]; P388 s.c. system): intensive anti-tumor effects almost in the same level as that of Compound b
- activity at 0.1 µg/mL (mouse bone marrow cells; 10^-1 μg/ml): 296%
- activity at 0.01 µg/mL (mouse bone marrow cells; 10^-2 μg/ml): 594%
- activity at 1 µg/mL (mouse splenic lymphocyte; Mus musculus, Splenic lymphocyte, 48 h, 10^0 μg/ml, read-out: Uptake of 3H-TdR (% of control), splenic lymphocytes): 615%
- activity at 0.001 µg/mL (mouse splenic lymphocyte; Mus musculus, Splenic lymphocyte, 48 h, 10^-3 μg/ml, read-out: Uptake of 3H-TdR (% of control), splenic lymphocytes): 744%
- activity at 1 µg/mL ([2]; Mus musculus, Lymphocyte, 1 × 10^0 μg/ml, read-out: MLR activating rate (%)): 206%
- activity at 0.1 µg/mL ([2]; Mus musculus, Lymphocyte, 1 × 10^-1 μg/ml, read-out: MLR activating rate (%)): 196%
- amount of Polysorbate 20 required for dissolving, relative to that required for Compound b ([3]; vs Compound b): 1/100

Structure (SMILES): CCCCCCCCCCCCCCCCCCCCCCCCCC(=O)N[C@@H](CO[C@H]1O[C@H](CO)[C@H](O)[C@H](O)[C@H]1O)[C@H](O)[C@H](O)CCCCCCCCCCCCCC [Compound b, (2S,3S,4R)-1-(α-D-galactopyranosyloxy)-2-hexacosanoylamino-3,4-octadecanediol, reference compound]
- Survival days ave. ± s. d. [1]: 15.6 ± 0.5 days
- response vs control in vivo at 0.1 mg/kg [1]: 122%
- activity at 0.1 µg/mL (mouse bone marrow cells; 10^-1 μg/ml): 381%
- activity at 0.01 µg/mL (mouse bone marrow cells; 10^-2 μg/ml): 438%
- solubility in Polysorbate, in words ([3]; 1 mg in 0.1% Polysorbate): insoluble
- 3H-TdR uptake in words, compound with Polysorbate 20 ([4]; 10 μg/ml (0.1% Polysorbate 20) and 1 μg/ml (0.01%) vs 0.1 μg/ml (0.001%)): suppressed
- 3H-TdR uptake ([4]; dilution 10^2): 201 cpm
- 3H-TdR uptake ([4]; dilution 10^3): 18300 cpm
- 3H-TdR uptake ([4]; dilution 10^4): 24439 cpm
- 3H-TdR uptake ([4]; dilution 10^5): 25555 cpm

Structure (SMILES): CCCCCCCCCCCCCCCCCCCCCC[C@@H](O)C(=O)N[C@@H](CO[C@H]1O[C@H](CO)[C@H](O)[C@H](O[C@H]2O[C@H](CO)[C@H](O)[C@H](O)[C@H]2NC(C)=O)[C@H]1O[C@H]1O[C@H](CO)[C@@H](O)[C@H](O)[C@H]1O)[C@H](O)[C@H](O)CCCCCCCCCCCCCC [Compound 6, O-(N-acetyl-2-amino-2-deoxy-α-D-galactopyranosyl)-(1→3)-O-[α-D-glucopyranosyl-(1→2)]-O-α-D-galactopyranosyl-(1→1)-(2S,3S,4R)-2-amino-N-[(R)-2-hydroxytetracosanoyl]-1,3,4-octadecanetriol]
- Survival days ave. ± s. d. [1]: 15.8 ± 1.1 days
- T/C (%) [1]: 123%
- Maximum tumor growth inhibiting rate, TGIR (%) (B16 mouse melanoma cells): 91.2%
- Uptake of 3H-TdR (% of control), bone marrow cells (mouse bone marrow cells; 10^-1 μg/ml): 431 % of control
- Uptake of 3H-TdR (% of control), bone marrow cells (mouse bone marrow cells; 10^-2 μg/ml): 142 % of control
- Uptake of 3H-TdR (% of control), splenic lymphocytes (mouse splenic lymphocyte; 10^0 μg/ml): 883 % of control
- Uptake of 3H-TdR (% of control), splenic lymphocytes (mouse splenic lymphocyte; 10^-1 μg/ml): 979 % of control
- Uptake of 3H-TdR (% of control), splenic lymphocytes (mouse splenic lymphocyte; 10^-2 μg/ml): 649 % of control
- Uptake of 3H-TdR (% of control), splenic lymphocytes (mouse splenic lymphocyte; 10^-3 μg/ml): 543 % of control
- MLR activating rate (%) ([2]; 1 × 10^0 μg/ml): 228%
- MLR activating rate (%) ([2]; 1 × 10^-1 μg/ml): 194%
- Number of surviving mice (lethally irradiated mice; day 10, 0.1 mg/kg): 10 mice
- Number of surviving mice (lethally irradiated mice; day 15, 0.1 mg/kg): 10 mice
- Number of surviving mice (lethally irradiated mice; day 20, 0.1 mg/kg): 8 mice
- Number of surviving mice (lethally irradiated mice; day 25, 0.1 mg/kg): 8 mice
- Number of surviving mice (lethally irradiated mice; day 30, 0.1 mg/kg): 8 mice
- Number of surviving mice (lethally irradiated mice; day 35, 0.1 mg/kg): 8 mice
- Number of surviving mice (lethally irradiated mice; day 40, 0.1 mg/kg): 8 mice

Structure (SMILES): CCCCCCCCCCCCCCCCCCCCCC[C@@H](O)C(=O)N[C@@H](CO[C@H]1O[C@H](CO)[C@H](O)[C@H](O[C@H]2O[C@H](CO)[C@H](O)[C@H](O)[C@H]2NC(C)=O)[C@H]1O[C@H]1O[C@H](CO)[C@@H](O)[C@H](O)[C@H]1O)[C@H](O)[C@H](O)CCCCCCCCCCCC(C)C [Compound 7, O-(N-acetyl-2-amino-2-deoxy-α-D-galactopyranosyl)-(1→3)-O-[α-D-glucopyranosyl-(1→2)]-O-α-D-galactopyranosyl-(1→1)-(2S,3S,4R)-2-amino-N-[(R)-2-hydroxytetracosanoyl]-16-methyl-1,3,4-heptadecanetriol]
- Survival days ave. ± s. d. [1]: 15.8 ± 0.9 days
- T/C (%) [1]: 123%
- Maximum tumor growth inhibiting rate, TGIR (%) (B16 mouse melanoma cells): 78.1%
- Uptake of 3H-TdR (% of control), bone marrow cells (mouse bone marrow cells; 10^-1 μg/ml): 451 % of control
- Uptake of 3H-TdR (% of control), bone marrow cells (mouse bone marrow cells; 10^-2 μg/ml): 478 % of control
- Uptake of 3H-TdR (% of control), splenic lymphocytes (mouse splenic lymphocyte; 10^0 μg/ml): 927 % of control
- Uptake of 3H-TdR (% of control), splenic lymphocytes (mouse splenic lymphocyte; 10^-2 μg/ml): 705 % of control
- Uptake of 3H-TdR (% of control), splenic lymphocytes (mouse splenic lymphocyte; 10^-3 μg/ml): 593 % of control
- MLR activating rate (%) ([2]; 1 × 10^0 μg/ml): 234%
- MLR activating rate (%) ([2]; 1 × 10^-1 μg/ml): 195%
- Number of surviving mice (lethally irradiated mice; day 10): 10 mice
- Number of surviving mice (lethally irradiated mice; day 15, 0.1 mg/kg): 8 mice
- Number of surviving mice (lethally irradiated mice; day 20, 0.1 mg/kg): 6 mice
- Number of surviving mice (lethally irradiated mice; day 25, 0.1 mg/kg): 3 mice
- Number of surviving mice (lethally irradiated mice; day 30, 0.1 mg/kg): 3 mice
- Number of surviving mice (lethally irradiated mice; day 35, 0.1 mg/kg): 3 mice
- Number of surviving mice (lethally irradiated mice; day 40, 0.1 mg/kg): 3 mice

Reference: patent publication US5780441A, “Sphingoglycolipid compounds and therapeutic uses thereof” (Kirin Beer Kabushiki Kaisha, priority 1993, dated 1998)
